Literature values in paper PMC10202811 (Nature Medicine, 2023).

Key:
[1] = test system: inflammatory myofibroblastic tumors; conditions: cited from earlier work
ALK-driven malignancies = test system: ALK-driven malignancies; set-up: method as in PMID 34780709; conditions: children, 6/30; cited from earlier work

SMILES | RR [1] | RR (complete/partial) (ALK-driven malignancies)
C[C@@H](Oc1cc(-c2cnn(C3CCNCC3)c2)cnc1N)c1c(Cl)ccc(F)c1Cl [crizotinib] | 86% | 
Cc1cc(Nc2ncc(Cl)c(Nc3ccccc3S(=O)(=O)C(C)C)n2)c(OC(C)C)cc1C1CCNCC1 [ceritinib] |  | 20%
